The source of these data is patent publication US5656651A, “Androgenic directed compositions” (Biophysica Inc., priority 1995, dated 1997).

Several values for one entry are separate records, joined by “and”; a condition that tells them apart may be missing. Equal entries are not always repeated. Where two headings read alike, the source gives them in different places.

For one series, the system named is androgen receptors. Conditions: background statement; cited from earlier work.
The target of series [1] is T1, human androgen receptors (Homo sapiens, UniProt P10275).
T1 construct: expressed in transfected cells; host or cells: CV-1 monkey cells (clone CV1-3.9.2)
The series can be described thus: Transactivation assay, anti-androgenic potency, CV1-3.9.2 cells. In kind it is cell-based. Conditions: stimulation with 0.1 nM testosterone. As for the experimental part: (§1) The androgenic and anti-androgenic activity of the current and novel compounds was tested in a specific assay described by Fuhrman et al. [J. Steroid Biochem. Molec. […] This assay uses CV-1 cells derived from monkeys transfected with human androgen receptors.

In series [2] the target is T1, human androgen receptors. Kind of series: Androgen activity of anti-androgens in CVI-3.9.2 cells (CAT activity). In kind it is cell-based. As for the experimental part:
as §1

The subject of series [3] is DU-145 Human Prostate (receptor poor). The series can be described thus: Inhibition of cell proliferation at 72 hours, DU-145. The class given is cell-based. To be noted: DU-145, 72 hours. As for the experimental part:
(§2) All compounds were screened on a panel of normal and cancer human cell lines, including human prostate cancer cell lines, PC-3, DU-145, and LnCAP.
(§3) Cells (10^4 /well) were plated on 96 well plates with the following controls: no cells and toxic control (1×10^-3 M sodium dodecyl sulfate (SDS). The drug was diluted in ethanol and added directly to the wells. Plates were incubated at 37° C. under 5% carbon dioxide in sterile air, in a humidified incubator for 72 hours. A solution (50 μl of 2,3-bis-(methoxy-4-nitro-5-sulfophenyl)-5-[(phenylamino)carbonyl]-2H-tetrazolium hydroxide (XTT), 1 mg/mL) in phosphate buffered saline (PBS, 100 mM) was added to each well, In the presence of viable cells, this colorless clear solution is enzymatically transformed to give a pink coloration, read at 450 nm using a microplate reader (Molecular Devices Thermomax). The inhibition of cell growth was measured by hemocytometer, counting cell viability. (Table I)

Series [4] relates to Ln CAP Human Prostate (with androgen receptors). The series can be described thus: Inhibition of cell proliferation at 72 hours, Ln CAP. Conditions: LNCaP. In kind it is cell-based. As for the experimental part:
as §2, §3

Series [5] relates to PC-3 Human Prostate (few androgen receptors). Kind of series: Inhibition of cell proliferation at 72 hours, PC-3. In kind it is cell-based. Conditions: PC-3, 72 hours. As for the experimental part:
as §2, §3

For a further series, the system named is MCF-7 Human Breast. Kind of series: Inhibition of cell proliferation at 72 hours, MCF-7. The class given is cell-based. To be noted: MCF7, MCF-7, 72 hours. As for the experimental part: as §2, §3
The test system of series [6] is MCF-7/ADR Human Breast (adriamycin resistant). Kind of series: Inhibition of cell proliferation at 72 hours, MCF-7/ADR. In kind it is cell-based. Conditions: NCI/ADR-RES, MCF-7/ADR (adriamycin resistant). As for the experimental part:
as §2, §3

For the next series, the system named is Ovcar 3 Human Ovary. The series can be described thus: Inhibition of cell proliferation at 72 hours, Ovcar 3. The class given is cell-based. To be noted: Ovcar 3, 72 hours. As for the experimental part: as §2, §3
Series [7] concerns Molt-4 Human T-cell Leukemia. Kind of series: Inhibition of cell proliferation at 72 hours, Molt-4. The class given is cell-based. Conditions: Molt-4, 72 hours. As for the experimental part:
as §2, §3

The test system of another series is L-1210 Mouse Leukemia. The series can be described thus: Inhibition of cell proliferation at 72 hours, L-1210. The class given is cell-based. To be noted: L1210, L-1210, 72 hours.
In series [8] the test system is NH DF Normal Dermal Fibroblast. The series can be described thus: Inhibition of cell proliferation at 72 hours, NH DF. In kind it is cell-based. Conditions: Homo sapiens, NHDF. As for the experimental part:
as §2, §3

The test system of series [9] is HLF-1 Normal Lung Diploid. Kind of series: Inhibition of cell proliferation at 72 hours, HLF-1. In kind it is cell-based. To be noted: Homo sapiens, HLF1. As for the experimental part: as §2, §3
The test system of series [10] is CHO Chinese Hamster Ovary. Kind of series: Inhibition of cell proliferation at 72 hours, CHO. In kind it is cell-based. To be noted: Cricetulus griseus.
A further series has as its system PC-3 human cell line. The series can be described thus: Relative growth inhibition after 6 days. In kind it is cell-based. To be noted: for activity at 10 µM: Homo sapiens, read-out: No. of cells remaining expressed as a % of control. As for the experimental part:
as §2
as §3, with “Plates were incubated at 37° C. under 5% carbon dioxide in sterile air, in a humidified incubator for 72 hours.” left out

The next series concerns glucocorticoid receptors. To be noted: background statement; cited from earlier work.
The test system of a further series is progestin receptors. To be noted: background statement; cited from earlier work.
Series [11] deals with panel of normal and cancer human cell lines. The series can be described thus: Cytotoxicity screen on panel of normal and cancer cell lines. The class given is cell-based. As for the experimental part:
as §2, §3

Setting [12] is: 10^-5 M, cell density 10^4/well.

T1 sequence (P10275 whole entry): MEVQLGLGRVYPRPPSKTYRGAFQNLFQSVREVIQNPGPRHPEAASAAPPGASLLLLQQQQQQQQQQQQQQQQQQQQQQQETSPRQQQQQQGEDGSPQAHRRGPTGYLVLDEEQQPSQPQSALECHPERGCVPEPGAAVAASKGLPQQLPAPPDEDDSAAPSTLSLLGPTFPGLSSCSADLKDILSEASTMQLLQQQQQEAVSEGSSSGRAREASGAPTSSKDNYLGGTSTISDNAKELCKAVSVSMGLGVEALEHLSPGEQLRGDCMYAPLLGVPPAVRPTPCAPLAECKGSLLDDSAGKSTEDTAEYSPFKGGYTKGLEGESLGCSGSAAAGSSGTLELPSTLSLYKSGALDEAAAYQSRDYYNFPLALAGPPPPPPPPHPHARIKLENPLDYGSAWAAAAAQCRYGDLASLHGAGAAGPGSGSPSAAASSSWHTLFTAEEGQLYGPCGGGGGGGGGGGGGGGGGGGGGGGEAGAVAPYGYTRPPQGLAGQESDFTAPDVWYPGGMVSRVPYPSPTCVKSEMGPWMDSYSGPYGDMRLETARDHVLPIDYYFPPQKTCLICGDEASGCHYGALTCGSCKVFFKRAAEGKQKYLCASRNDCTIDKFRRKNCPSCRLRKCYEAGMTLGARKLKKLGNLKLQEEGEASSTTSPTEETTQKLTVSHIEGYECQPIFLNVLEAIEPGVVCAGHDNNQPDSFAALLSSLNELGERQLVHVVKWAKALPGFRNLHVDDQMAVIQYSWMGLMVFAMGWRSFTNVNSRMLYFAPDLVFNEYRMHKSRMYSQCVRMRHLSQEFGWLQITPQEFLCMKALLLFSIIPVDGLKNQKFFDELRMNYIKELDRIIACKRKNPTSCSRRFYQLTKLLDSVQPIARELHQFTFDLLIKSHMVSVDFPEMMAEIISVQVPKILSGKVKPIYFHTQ

`CC(O)(CS(=O)(=O)c1ccc(F)cc1)C(=O)Nc1ccc(C#N)c(C(F)(F)F)c1` (centres unmarked) [Casodex]: in the series with androgen receptors, the “binding to androgen receptors (sufficiency for complete blockage)” value is reported as “do not bind sufficiently to androgen receptors to achieve their complete blockage”.

Molecule `CC(C)(C)OC(=O)NCCN1C(=S)N(c2ccc(C#N)c(C(F)(F)F)c2)C(=O)C1(C)C` [BP137, 4-[3-(2'-N-(t-butoxycarbonyl)-aminoethyl)-4,4-dimethyl-5-oxo-2-thioxo-1-imidazolidinyl]-2-trifluoromethyl-benzonitrile] came in with an IC50 against human androgen receptors [1] of 0.02 µM. Moreover, the “CAT Activity” value on human androgen receptors [2] (1 μM) was 2000 cpm.

Turning to `C=CCN1C(=S)N(c2ccc(C#N)c(C(F)(F)F)c2)C(=O)C1(C)C` [BP-82, 4-[4,4-dimethyl-5-oxo-3-(2'-propenyl)-2-thioxo-1-imidazolidinyl]-2-trifluoromethyl-benzonitrile], the IC50 amounted to 13.9 µM in series [3]; 66 µM in [4]; 31.5 µM in [5]; 50 µM in the series with MCF-7 Human Breast; 15.1 µM in series [6]; 96.5 µM in the series on Ovcar 3 Human Ovary. The IC50 in series [7] was 48.8 µM; in the series with L-1210 Mouse Leukemia, 25 µM; in series [8] it was 91.7 µM; in series [9], 39 µM; in series [10] it was 34.5 µM; at human androgen receptors [1], approximately 0.0065 µM. Besides, the activity at 10 µM in the series on PC-3 human cell line (setting [12]) is approximately 70%. In the series on PC-3 human cell line (PC-3, Table II), the “cytostatic effect in PC-3 human cell line” value is “cytostatic effect”. The “CAT Activity” value at human androgen receptors [2] (1 μM) was determined as 1300 cpm.

Turning to `CC(C)(C)OC(=O)NCCN1C(=S)N(c2ccc(C#N)c(C(F)(F)F)c2)C(=N)C1(C)C` [BP136, 4-[3-(2'-(N-t-butoxycarbonyl)-aminoethyl)-4,4-dimethyl-5-imino-2-thioxo-1-imidazolidinyl]-2-trifluoromethyl-benzonitrile], the IC50 against human androgen receptors [1] is 0.2 µM. Moreover, the “CAT Activity” value on human androgen receptors [2] (1 μM) is given as 1800 cpm.

Consider `CC1(C)C(=O)N(c2ccc(C#N)c(C(F)(F)F)c2)C(=S)N1CC(O)CO` (centres unmarked) [BP135, 4-[3-(2',3'-dihydroxypropyl)-4,4-dimethyl-5-oxo-2-thioxo-1-imidazolidinyl]-2-trifluoromethyl-benzonitrile], for which the IC50 against human androgen receptors [1] stood at 0.158 µM. The “CAT Activity” value on human androgen receptors [2] (1 μM) was 1900 cpm.

As to `CC(=O)O[C@]1(C(C)=O)CC[C@H]2[C@@H]3C=C(Cl)C4=CC(=O)[C@@H]5C[C@@H]5[C@]4(C)[C@H]3CC[C@@]21C` [Cyproterone Acetate], the “binding to glucocorticoid receptors” value with glucocorticoid receptors was “binds to the glucocorticoid and progestin receptors”. Further, the “binding to progestin receptors” value in the series with progestin receptors was “binds to the glucocorticoid and progestin receptors”.

For the molecule `CC1(C)C(=O)N(c2ccc(C#N)c(C(F)(F)F)c2)C(=S)N1CCCCO` [RU59063, 4-[4,4-dimethyl-3-(4-hydroxybutyl)-5-oxo-2-thioxo-1-imidazolidinyl]-2-trifluoromethyl-benzonitrile, reference compound], on human androgen receptors [1], the IC50 came out at 0.023 µM. Moreover, the “CAT Activity” value on human androgen receptors [2] (1 μM) was 2600 cpm.

Take `CC(=O)O[C@H]1C(=O)[C@]2(C)[C@@H](OC(=O)NCCN3C(=S)N(c4ccc(C#N)c(C(F)(F)F)c4)C(=O)C3(C)C)C[C@H]3OC[C@@]3(OC(C)=O)[C@H]2[C@H](OC(=O)c2ccccc2)[C@]2(O)C[C@H](OC(=O)[C@H](O)[C@@H](NC(=O)c3ccccc3)c3ccccc3)C(C)=C1C2(C)C` [BP-196, 7-{imidazolidinyl-5",5"-dimethyl-4"-oxo-3"-[4"'-cyano-3'"-trifluoromethylphenyl-imidazolidinyl]-2"-thioxo-1"-ethylcarbamoxy}paclitaxel]: the IC50 was determined as 0.867 µM in series [3]; 0.131 µM in [4]; 0.0372 µM in series [5]; 0.989 µM in the series on MCF-7 Human Breast; 10 µM in series [6]; 0.05 µM in the series on Ovcar 3 Human Ovary. In addition, the IC50 amounted to 0.147 µM in series [7]; 0.97 µM in the series with L-1210 Mouse Leukemia; 0.107 µM in [8]; 8.06 µM in series [9]; 8.76 µM in series [10]. The “Observation (relative growth inhibition)” value in the series with PC-3 human cell line (10^-5 M, after 6 days, cell density 10^4/well) was “cytotoxic cell death”. In the series on PC-3 human cell line (setting [12]), the activity at 10 µM was approximately 100%. For the same molecule, the “toxicity vis-a-vis normal cells” value in series [11] (normal cells) is “quite high”.

At human androgen receptors [1], `CC1(C)OCC(CN2C(=S)N(c3ccc(C#N)c(C(F)(F)F)c3)C(=N)C2(C)C)O1` (centres unmarked) [BP163, 4-[4,4-dimethyl-3-(2',2'-dimethyl-1',3'-dioxolane-4'-methyl)-5-imino-2-thioxo-1-imidazolidinyl]-2-trifluoromethyl-benzonitrile] showed a half-inhibitory concentration (IC50) of 0.217 µM. For the same molecule, the “CAT Activity” value at human androgen receptors [2] (1 μM) is 2100 cpm.

For the molecule `CC1(C)C(=O)N(c2ccc(C#N)c(C(F)(F)F)c2)C(=S)N1CCc1c[nH]cn1` [BP-213], the activity at 10 µM with PC-3 human cell line (setting [12]) was approximately 40%.

With `CC(=O)NCCN1C(=S)N(c2ccc(C#N)c(C(F)(F)F)c2)C(=O)C1(C)C` [BP139, 4-[3-(2'-N-acetylaminoethyl)-4,4-dimethyl-5-oxo-2-thioxo-1-imidazolidinyl]-2-trifluoromethyl-benzonitrile], half-maximal inhibition against human androgen receptors [1] (IC50) required 0.239 µM. The “CAT Activity” value on human androgen receptors [2] (1 μM) turned out to be 1500 cpm.

Take `C#CCN1C(=S)N(c2ccc(C#N)c(C(F)(F)F)c2)C(=O)C1(C)C` [BP-199, 4-[4,4-dimethyl-3-(2'-propynyl)-5-oxo-2-thioxo-1-imidazolidinyl]-2-trifluoromethyl-benzonitrile]: the IC50 in series [3] was 85.1 µM; in series [4], 0.82 µM; in series [5], 0.132 µM; with MCF-7 Human Breast, 100 µM; in series [6], 10 µM; in the series on Ovcar 3 Human Ovary it was more than 100 µM. The IC50 in [7] was more than 100 µM; in the series on L-1210 Mouse Leukemia, 11 µM; in series [8], more than 100 µM; in series [9] it was more than 100 µM; in [10], 12.8 µM; at human androgen receptors [1], 0.015 µM. Also, in the series with PC-3 human cell line (setting [12]), the activity at 10 µM was approximately 50%. In addition, the “cytotoxicity in human prostate cancer lines containing at least some androgen receptors” value in series [11] (human prostate cancer lines) is reported as “most cytotoxic”. In addition, the “cytotoxicity in a variety of other human transformed and normal cells” value in series [11] (other human transformed and normal cells) is “low cytotoxicity”.

Consider `C[C@]1(O)CC[C@H]2[C@@H]3CCC4=CC(=O)CCC4=C3C=C[C@@]21C` [R1881, reference compound], for which, at human androgen receptors [2], the “CAT Activity” value is 5400 cpm and 5600 cpm and 6700 cpm.

`CC1(C)OCC(CN2C(=S)N(c3ccc(C#N)c(C(F)(F)F)c3)C(=O)C2(C)C)O1` (centres unmarked) [BP134, 4-[4,4-dimethyl-3-[2',2'-dimethyl-1',3'-dioxolane-4'-methyl)-5-oxo-2-thioxo-1-imidazolidinyl]-2-trifluoromethyl-benzonitrile]: the IC50 on human androgen receptors [1] came out at 0.021 µM. At human androgen receptors [2] (1 μM), the “CAT Activity” value is 1600 cpm.

In the case of `CC1(C)C(=O)N(c2ccc(C#N)c(C(F)(F)F)c2)C(=S)N1CCN` [BP138, 4-[3-(2'-aminoethyl) 4,4-dimethyl-5-oxo-2-thioxo-1-imidazolidinyl]-2-trifluoromethyl-benzonitrile], on human androgen receptors [1], inhibition was half-maximal at 0.139 µM (IC50). Besides, on human androgen receptors [2] (1 μM), the “CAT Activity” value is reported as 1600 cpm.

In general, IC50 refers to the concentration needed to halve the response being measured. A lower IC50 goes with inhibition by little substance.
